From publication PMC7158045 (BMC Plant Biology, 2020)
Where a name gives a salt, the structure may show the parent alone.

Tests used:
Experiment in all cases: biochemical
ZmDRIK1-R187-P492 = target: T1, ZmDRIK1-R187-P492 (Zea mays, UniProt C0P4K9); conditions: read-out: dTm B, DSF, Boltzmann fit, 0.1% DMSO
T1 construct: kinase domain, R187-P492
T1 sequence (C0P4K9 1-514): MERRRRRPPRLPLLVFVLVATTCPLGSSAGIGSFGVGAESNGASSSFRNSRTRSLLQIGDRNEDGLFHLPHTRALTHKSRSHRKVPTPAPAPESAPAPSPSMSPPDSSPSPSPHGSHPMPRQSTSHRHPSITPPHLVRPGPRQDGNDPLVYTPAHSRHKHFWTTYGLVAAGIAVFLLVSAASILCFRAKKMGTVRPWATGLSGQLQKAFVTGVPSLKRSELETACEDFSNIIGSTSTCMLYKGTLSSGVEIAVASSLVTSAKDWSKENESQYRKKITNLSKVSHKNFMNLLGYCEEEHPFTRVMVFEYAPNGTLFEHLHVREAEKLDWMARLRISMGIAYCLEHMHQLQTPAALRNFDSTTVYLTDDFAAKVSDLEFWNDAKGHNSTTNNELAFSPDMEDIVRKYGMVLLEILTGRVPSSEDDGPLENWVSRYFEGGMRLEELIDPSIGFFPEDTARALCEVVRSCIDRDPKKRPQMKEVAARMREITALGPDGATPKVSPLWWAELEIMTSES

ZmDRIK1-K217-S514 = target: T2, ZmDRIK1-K217-S514 (Zea mays, UniProt C0P4K9); conditions: read-out: dTm B, sheet ZmDRIK1-K217-S514;; DSF, Boltzmann fit, 0.1% DMSO
T2 construct: kinase domain, K217-S514
T2 sequence (C0P4K9 1-514): T1 sequence (C0P4K9 1-514)

[1] = target: T3, ZmDRIK1 (DROUGHT RESPONSIVE INACTIVE KINASE 1), kinase domain (Zea mays, UniProt C0P4K9); conditions: read-out: dTm B, sheet ZmDRIK1-R187-S514;; DSF, Boltzmann fit, 0.1% DMSO
T3 construct: gene ZEAMMB73_Zm00001d028770; ZmDRIK1-KD R187-S514 (kinase domain)
T3 sequence (C0P4K9 187-514): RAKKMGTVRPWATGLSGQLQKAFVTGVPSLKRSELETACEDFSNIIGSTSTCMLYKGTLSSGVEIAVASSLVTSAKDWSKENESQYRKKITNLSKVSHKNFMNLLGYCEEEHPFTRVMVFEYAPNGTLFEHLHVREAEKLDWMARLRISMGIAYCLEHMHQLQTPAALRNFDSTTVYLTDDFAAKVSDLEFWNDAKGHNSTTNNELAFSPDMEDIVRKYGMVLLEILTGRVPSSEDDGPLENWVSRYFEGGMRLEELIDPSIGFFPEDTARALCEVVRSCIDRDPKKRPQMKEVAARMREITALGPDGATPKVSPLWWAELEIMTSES

ZmDRIK1-K217-P492 = target: T4, ZmDRIK1-K217-P492 (Zea mays, UniProt C0P4K9); conditions: read-out: dTm B, sheet ZmDRIK1-K217-P492;; DSF, Boltzmann fit, 0.1% DMSO
T4 construct: kinase domain, K217-P492
T4 sequence (C0P4K9 1-514): T1 sequence (C0P4K9 1-514)

Row | SMILES | ΔTm at 10 µM (ZmDRIK1-R187-P492) | ΔTm at 10 µM (ZmDRIK1-K217-S514) | ΔTm at 10 µM [1] | ΔTm at 10 µM (ZmDRIK1-K217-P492)
1 | COc1cc(F)c(F)c(Nc2ccc(I)cc2F)c1NS(=O)(=O)C1(C[C@H](O)CO)CC1 [Refametinib (RDEA119)] | -0.163 °C | -0.254 °C | -1.12 °C | -0.93 °C
2 | Cc1c(Cn2c(C)nc3c(C(=O)O)cc(N4CCOCC4)cc32)cccc1C(F)(F)F [GSK2636771] | -0.37 °C | -0.699 °C | -0.589 °C | -0.98 °C
3 | Cn1c(=O)c(F)c(Nc2ccc(I)cc2F)c2c(=O)n(C[C@@H](O)CO)cnc21 [TAK-733] | -0.375 °C | -0.514 °C | -0.814 °C | -1.32 °C
4 | O=c1cc(N2CCOCC2)oc2c(-c3cccc4c3sc3ccccc34)cccc12 [NU7441 (KU-57788)] | -0.309 °C | -1.59 °C | -0.875 °C | -1.94 °C
5 | Cc1cc2c(F)c(Oc3ncnn4cc(OC[C@@H](C)OC(=O)[C@H](C)N)c(C)c34)ccc2[nH]1 [Brivanib Alaninate (BMS-582664)] | -0.504 °C | -0.426 °C | -1.08 °C | -1 °C
6 | C[C@@H](Oc1cc(-n2cnc3ccc(CN4CCN(C)CC4)cc32)sc1C(N)=O)c1ccccc1C(F)(F)F [GSK461364] | -0.19 °C | -0.15 °C | -1.05 °C | -0.796 °C
7 | Cc1cc(N2CCOCC2)cc2[nH]c(-c3c(NC[C@@H](O)c4cccc(Cl)c4)cc[nH]c3=O)nc12 [BMS-536924] | -0.284 °C | -0.645 °C | -0.852 °C | -1.5 °C
8 | N=C(N)NC(=N)NCCc1ccccc1 [Phenformin HCl] | -0.125 °C | -0.473 °C | -0.596 °C | -1.3 °C
9 | Oc1ccc2ccccc2c1SSc1c(O)ccc2ccccc12 [IPA-3] | -15.4 °C | -15 °C | -20.6 °C | -15.1 °C
10 | CCS(=O)(=O)Nc1ccc2c(c1)/C(=C(/Nc1ccc(CN3CCCCC3)cc1)c1ccccc1)C(=O)N2 [Hesperadin] | -0.086 °C | -0.308 °C | -0.801 °C | 0.108 °C
11 | C=CC(=O)Nc1cccc(Nc2nc(Nc3ccc(N4CCN(C(C)=O)CC4)cc3OC)ncc2C(F)(F)F)c1 [CO-1686 (AVL-301)] | -0.278 °C | -0.448 °C | -0.884 °C | -0.85 °C
12 | NC(=O)c1cnc(N[C@@H]2CCCC[C@@H]2N)nc1Nc1cccc(-n2nccn2)c1 [PRT062607 (P505-15)] | -0.212 °C | -0.551 °C | -0.709 °C | -0.348 °C
13 | Cc1cc(Nc2cc(N3CCN(C)CC3)nc(Sc3ccc(NC(=O)C4CC4)cc3)n2)n[nH]1 [VX-680 (Tozasertib)] | -0.37 °C | -0.694 °C | -0.713 °C | -1.16 °C
14 | CCOc1cc2ncc(C#N)c(Nc3ccc(F)c(Cl)c3)c2cc1NC(=O)/C=C/CN(C)C [Pelitinib (EKB-569)] | -0.494 °C | -0.496 °C | -0.77 °C | -0.854 °C
15 | Cn1cc(-c2ccc3nnc(Sc4ccc5ncccc5c4)n3n2)cn1 [SGX-523] | -0.0185 °C | -0.351 °C | -0.576 °C | -0.7 °C
16 | Cn1cc(-c2cnn3c(N)c(Br)c([C@@H]4CCCNC4)nc23)cn1 [MK-8776 (SCH 900776)] | -0.226 °C | -0.293 °C | -0.736 °C | -0.951 °C
17 | C=CC(=O)Nc1cccc(Sc2nc(Nc3ccc(N4CCN(C)CC4)cc3)ncc2Cl)c1 [WZ8040] | -0.275 °C | -0.291 °C | -0.927 °C | -0.667 °C
18 | CCn1c(-c2nonc2N)nc2c(C#CC(C)(C)O)ncc(OC[C@H]3CCCNC3)c21 [GSK690693] | -0.153 °C | -0.204 °C | -0.678 °C | -1.08 °C
19 | C#Cc1cccc(Nc2ncnc3cc(OC)c(OCCCCCCC(=O)NO)cc23)c1 [CUDC-101] | -0.186 °C | -0.263 °C | -0.684 °C | -1.03 °C
20 | C=CC(=O)Nc1cccc(Nc2nc(Nc3ccc(Oc4ccnc(C(=O)NC)c4)cc3)ncc2F)c1 [CNX-774] | -1.55 °C | -0.729 °C | -10.9 °C | -0.472 °C
21 | COC(=O)[C@]12CCC(C)(C)C[C@H]1[C@H]1C(=O)C=C3[C@@]4(C)C=C(C#N)C(=O)C(C)(C)[C@@H]4CC[C@@]3(C)[C@]1(C)CC2 [Bardoxolone Methyl] | -1.1 °C | -1.7 °C | -2.89 °C | -4.07 °C
22 | O=C(NC(NC(=S)Nc1ccc(F)c([N+](=O)[O-])c1)C(Cl)(Cl)Cl)C(c1ccccc1)c1ccccc1 (stereo not drawn) [CGK 733] | 0.467 °C | 0.146 °C | 0.221 °C | -1.46 °C
23 | Nc1nccc(Oc2ccc(NC(=O)c3c[nH]cc(-c4ccc(F)cc4)c3=O)cc2F)c1Cl [BMS-794833] | 0.213 °C | -19 °C | -1.96 °C | -0.717 °C
24 | COc1ccc(S(=O)(=O)N(CCO)c2ccccc2CN(C)C/C=C/c2ccc(Cl)cc2)cc1 [KN-93 Phosphate] | -1.06 °C | -0.811 °C | -0.375 °C | -4.4 °C
25 | Cc1nc(Nc2n[nH]c3c2CN(C(=O)N[C@H](CN(C)C)c2ccccc2)C3(C)C)c2sccc2n1 [PF-3758309] | -0.393 °C | -0.258 °C | -0.774 °C | -0.748 °C
26 | C[C@H](Nc1ncnc2nc[nH]c12)c1cc2cccc(Cl)c2c(=O)n1-c1ccccc1 [IPI-145 (INK1197)] | -0.495 °C | -0.374 °C | -1.16 °C | -0.86 °C
27 | Cc1[nH]c2ccccc2c1C1=C(NCCc2ccc(F)cc2)C(=O)N(C)C1=O [IM-12] | -0.527 °C | -0.628 °C | -0.881 °C | -1.43 °C
28 | COc1ccc2c(c1)c(C1=C(c3c[nH]c4ccccc34)C(=O)NC1=O)cn2CCCN(C)C [Go 6983] | -0.26 °C | -0.364 °C | -0.633 °C | -1.22 °C
29 | NC(=O)c1ccc(N(C(N)=O)c2c(F)cccc2F)nc1-c1ccc(F)cc1F [VX-702] | -0.499 °C | -0.374 °C | -0.444 °C | -0.792 °C
30 | Cc1cc(C(=O)NOCCO)c(Nc2ccc(I)cc2F)n(C)c1=O [AZD8330] | -0.162 °C | -0.42 °C | -0.935 °C | -0.83 °C
